Laboratory results from patent US20100093795A1, “Piperidine Derivative Used for Treating Chemokine Receptor 5 Mediated Diseases” (priority 2006, published 2010).

Assay: Rat pharmacokinetics after intravenous and oral dosing (Example 3)
Type: in vivo
Details: Alderley Park Han Wistar; male rat (Han Wistar), oral 2 mg/kg vs intravenous 2 mg/kg, whole blood; read-out: F (bioavailability)
Method: The rat pharmacokinetic (PK) parameters blood clearance (CL), volume of distribution (Vdss) and half life (t½) are calculated by determining the concentration (exposure) of test compound in whole blood samples taken from rats at various, defined time points subsequent to the intra-venous dosing (administration) of formulated test compound. The rat PK parameter bioavailability (F) is calculated by determining the concentration (exposure) of test compound in whole blood samples taken from rats at various, defined time-points subsequent to the oral dosing (administration) of formulated test compound and then by comparison of the ratio of the dose normalized total oral exposure (AUCpo) with the dose normalized total intra-venous exposure (AUCiv). Fraction absorbed (Fabs) is a secondary PK parameter that is often calculated from a knowledge of the clearance (CL) and bioavailability (F) of a test compound. […]
Calibration standard samples are prepared by addition of known amounts of test compound to blank diluted (1:1) blood samples. […] Following centrifugation, sample and calibration standard supernatants are analysed for test compound concentration by HPLC with MS/MS (triple quad mass spectrometry) detection. Quantification of test compound concentrations in the blood samples taken from the rats is achieved by reference to a standard curve constructed from the calibration standard samples. […]

| bioavailability | Compound |
| --- | --- |
| 1% | Cc1nnc(C(C)C)n1C1CCN(C(C)C[C@@H](c2cc(F)cc(F)c2)C2CCN(S(C)(=O)=O)CC2)CC1 (single isomer, unassigned) [Comparator Compound A] |
| 28% | CCc1nnc(C(C)C)n1C1CCN([C@H](C)C[C@@H](c2cc(F)cc(F)c2)C2CCN(S(C)(=O)=O)CC2)CC1 (single isomer, unassigned) |
